The supplement of paper PMC13207355
± gives the standard deviation of the averaged measurements.

How the values were obtained:
Details in all cases: exposure time: 72 h
E13 [1] = patient-derived glioblastoma stem cells of classical subtype; test: surviving fraction (nuclei count normalised to DMSO); higher = more cells surviving (less toxic)
E21 [2] = patient-derived glioblastoma stem cells of mesenchymal subtype; test: as above
E28 [3] = patient-derived glioblastoma stem cells of classical subtype; test: as above
E34 [4] = patient-derived glioblastoma stem cells of proneural subtype; test: as above
E57 [5] = patient-derived glioblastoma stem cells of mesenchymal subtype; test: as above
FT3469 [6] = normal neural stem cell line; test: as above
E13 [7] = test: phenotypic distance (Euclidean, principal components) from DMSO controls (arbitrary units); higher = stronger morphological change
E21 [8] = test: as above
E28 [9] = test: as above
E34 [10] = test: as above
E57 [11] = test: as above
FT3469 [12] = test: as above
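Throughout, for phenotypic distance (Euclidean, principal components) from DMSO controls: cell Painting imaging in 384-well plates, CellProfiler features reduced to at least 20 principal components, Euclidean distance versus same-plate DMSO vehicle wells (0.1% v/v), median over six images per well.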
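Throughout, for surviving fraction (nuclei count normalised to DMSO): nuclei counted by high-content imaging of Hoechst-stained cells in laminin-coated 384-well plates, relative to 0.1% DMSO vehicle wells, with staurosporine as cell-death control.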

O=C(C1CC1)N1CC[C@@H](Cc2n[nH]c(=O)n2-c2ccc(-c3ccc4occc4c3)cc2)C1
Details	phenotypic distance	surviving fraction
E13 [1], 4.1 nM	–	0.7243 ± 0.004
E13 [1], 12.3 nM	–	0.771 ± 0.062
E13 [1], 37 nM	–	0.726 ± 0.016
E13 [1], 111.1 nM	–	0.671 ± 0.097
E13 [1], 333.3 nM	–	0.641 ± 0.11
E13 [1], 1000 nM	–	0.744 ± 0.052
E13 [1], 3000 nM	–	0.66 ± 0.015
E13 [7], 4.1 nM	3.07 ± 0.076	–
E13 [7], 12.3 nM	3.018 ± 0.0044	–
E13 [7], 37 nM	3.95 ± 1.1	–
E13 [7], 111.1 nM	3.29 ± 0.25	–
E13 [7], 333.3 nM	3.49 ± 0.32	–
E13 [7], 1000 nM	3.21 ± 0.064	–
E13 [7], 3000 nM	2.99 ± 0.11	–
E21 [2], 4.1 nM	–	0.835 ± 0.082
E21 [2], 12.3 nM	–	0.849 ± 0.024
E21 [2], 37 nM	–	0.804 ± 0.023
E21 [2], 111.1 nM	–	0.777 ± 0.015
E21 [2], 333.3 nM	–	0.749 ± 0.045
E21 [2], 1000 nM	–	0.789 ± 0.013
E21 [2], 3000 nM	–	0.732 ± 0.034
E21 [8], 4.1 nM	2.24 ± 0.25	–
E21 [8], 12.3 nM	2.337 ± 0.018	–
E21 [8], 37 nM	2.41 ± 0.11	–
E21 [8], 111.1 nM	2.65 ± 0.17	–
E21 [8], 333.3 nM	2.64 ± 0.24	–
E21 [8], 1000 nM	2.59 ± 0.029	–
E21 [8], 3000 nM	2.62 ± 0.2	–
E28 [3], 4.1 nM	–	0.827 ± 0.081
E28 [3], 12.3 nM	–	0.792 ± 0.071
E28 [3], 37 nM	–	0.771 ± 0.17
E28 [3], 111.1 nM	–	0.752 ± 0.061
E28 [3], 333.3 nM	–	0.786 ± 0.028
E28 [3], 1000 nM	–	0.662 ± 0.059
E28 [3], 3000 nM	–	0.704 ± 0.12
E28 [9], 4.1 nM	2.86 ± 0.79	–
E28 [9], 12.3 nM	3.11 ± 0.037	–
E28 [9], 37 nM	3.37 ± 0.27	–
E28 [9], 111.1 nM	3.59 ± 0.14	–
E28 [9], 333.3 nM	3.55 ± 0.12	–
E28 [9], 1000 nM	3.85 ± 0.29	–
E28 [9], 3000 nM	3.76 ± 0.34	–
E34 [4], 4.1 nM	–	0.853 ± 0.12
E34 [4], 12.3 nM	–	0.872 ± 0.089
E34 [4], 37 nM	–	0.906 ± 0.0092
E34 [4], 111.1 nM	–	0.895 ± 0.082
E34 [4], 333.3 nM	–	0.879 ± 0.17
E34 [4], 1000 nM	–	0.864 ± 0.15
E34 [4], 3000 nM	–	0.811 ± 0.14
E34 [10], 4.1 nM	1.76 ± 0.44	–
E34 [10], 12.3 nM	2.04 ± 0.054	–
E34 [10], 37 nM	2.26 ± 0.24	–
E34 [10], 111.1 nM	2.59 ± 0.22	–
E34 [10], 333.3 nM	2.265 ± 0.0027	–
E34 [10], 1000 nM	2.464 ± 7.1e-05	–
E34 [10], 3000 nM	2.5 ± 0.35	–
E57 [5], 4.1 nM	–	0.616 ± 0.019
E57 [5], 12.3 nM	–	0.62 ± 0.043
E57 [5], 37 nM	–	0.578 ± 0.037
E57 [5], 111.1 nM	–	0.574 ± 0.036
E57 [5], 333.3 nM	–	0.526 ± 0.014
E57 [5], 1000 nM	–	0.53 ± 0.047
E57 [5], 3000 nM	–	0.469 ± 0.066
E57 [11], 4.1 nM	3.85 ± 0.28	–
E57 [11], 12.3 nM	3.99 ± 0.17	–
E57 [11], 37 nM	4.34 ± 0.098	–
E57 [11], 111.1 nM	4.35 ± 0.073	–
E57 [11], 333.3 nM	4.55 ± 0.096	–
E57 [11], 1000 nM	4.45 ± 0.051	–
E57 [11], 3000 nM	4.65 ± 0.083	–
FT3469 [6], 4.1 nM	–	0.786 ± 0.1
FT3469 [6], 12.3 nM	–	0.874 ± 0.011
FT3469 [6], 37 nM	–	0.823 ± 0.1
FT3469 [6], 111.1 nM	–	0.77 ± 0.027
FT3469 [6], 333.3 nM	–	0.783 ± 0.013
FT3469 [6], 1000 nM	–	0.769 ± 0.035
FT3469 [6], 3000 nM	–	0.666 ± 0.019
FT3469 [12], 4.1 nM	2.28 ± 0.66	–
FT3469 [12], 12.3 nM	2.24 ± 0.057	–
FT3469 [12], 37 nM	2.6 ± 0.25	–
FT3469 [12], 111.1 nM	3.07 ± 0.27	–
FT3469 [12], 333.3 nM	2.8 ± 0.58	–
FT3469 [12], 1000 nM	3.17 ± 0.27	–
FT3469 [12], 3000 nM	3.52 ± 0.046	–
